Measured values: PubChem BioAssay AID256 (DTP/NCI, 2004)
Several values for one entry are separate records, joined by “and”; a condition that tells them apart may be missing. Identical values can stand only once. Inconclusive results and toxic doses are left out. Rule for the calls: active = survival T/C of 150% or more; inactive = T/C below 125% in these data. Residues, ends and D or L forms follow the SMILES beside them. *: point of attachment. Cbz = O=C(OCc1ccccc1)*

Tested on: CD2F1 mice, L1210 leukemia ip, survival T/C
Assay: NCI In Vivo Anticancer Drug Screen. Data for tumor model L1210 Leukemia (intraperitoneal) in CD2F1 (CDF1) mice
Details: higher = longer survival
In short: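 Tumor-bearing mice (transplanted tumor) were split into treated and vehicle control groups, and the measured endpoint of each treated group was divided by that of its vehicle controls.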

[1] = endpoint: mean survival time, dose: 100.0 mg/kg/injection, schedule: Q04DX002 (ip), vehicle: saline with Tween-80
[2] = endpoint: mean survival time, dose: 100.0 mg/kg/injection, schedule: Q04DX003 (ip), vehicle: saline with Tween-80
[3] = endpoint: mean survival time, dose: 200.0 mg/kg/injection, schedule: Q04DX003 (ip), vehicle: saline with Tween-80
[4] = endpoint: mean survival time, dose: 400.0 mg/kg/injection, schedule: Q04DX003 (ip), vehicle: saline with Tween-80
[5] = endpoint: mean survival time, dose: 100.0 mg/kg/injection, schedule: Q01DX009 (ip), vehicle: saline with Tween-80
[6] = endpoint: mean survival time, dose: 200.0 mg/kg/injection, schedule: Q01DX009 (ip), vehicle: saline with Tween-80
[7] = endpoint: mean survival time, dose: 400.0 mg/kg/injection, schedule: Q01DX009 (ip), vehicle: saline with Tween-80
[8] = endpoint: mean survival time, dose: 25.0 mg/kg/injection, schedule: Q04DX002 (ip), vehicle: saline with Tween-80
[9] = endpoint: mean survival time, dose: 50.0 mg/kg/injection, schedule: Q04DX002 (ip), vehicle: saline with Tween-80
[10] = endpoint: mean survival time, dose: 12.5 mg/kg/injection, schedule: Q04DX003 (ip), vehicle: Klucel (hydroxypropylcellulose) (HPC)
[11] = endpoint: mean survival time, dose: 25.0 mg/kg/injection, schedule: Q04DX003 (ip), vehicle: Klucel (hydroxypropylcellulose) (HPC)
[12] = endpoint: mean survival time, dose: 50.0 mg/kg/injection, schedule: Q04DX003 (ip), vehicle: Klucel (hydroxypropylcellulose) (HPC)
[13] = endpoint: mean survival time, dose: 100.0 mg/kg/injection, schedule: Q04DX003 (ip), vehicle: Klucel (hydroxypropylcellulose) (HPC)
[14] = endpoint: mean survival time, dose: 200.0 mg/kg/injection, schedule: Q04DX003 (ip), vehicle: Klucel (hydroxypropylcellulose) (HPC)
[15] = endpoint: mean survival time, dose: 100.0 mg/kg/injection, schedule: Q01DX001 (ip), vehicle: saline
[16] = endpoint: mean survival time, dose: 200.0 mg/kg/injection, schedule: Q01DX001 (ip), vehicle: saline
[17] = endpoint: mean survival time, dose: 400.0 mg/kg/injection, schedule: Q01DX001 (ip), vehicle: saline

Measured: T/C

COc1ccccc1NC(=O)Oc1ccc(C(C)(C)C)cc1
inactive: [1] 96 % of control | endpoint: mean survival time, dose: 200.0 mg/kg/injection, schedule: Q04DX002 (ip), vehicle: saline with Tween-80 88 % of control | endpoint: mean survival time, dose: 400.0 mg/kg/injection, schedule: Q04DX002 (ip), vehicle: saline with Tween-80 100 % of control

O=C(O)C1CC1c1ccccc1 (centres undefined)
inactive: [2] 95 % of control | [3] 103 % of control | [4] 100 % of control

O=C(O)CCN(Cl)Cl
inactive: endpoint: mean survival time, dose: 1.56 mg/kg/injection, schedule: Q01DX009 (ip), vehicle: saline 97 % of control | endpoint: mean survival time, dose: 3.13 mg/kg/injection, schedule: Q01DX009 (ip), vehicle: saline 102 % of control | endpoint: mean survival time, dose: 6.25 mg/kg/injection, schedule: Q01DX009 (ip), vehicle: saline 100 % of control

O=C1OC(OC(=O)c2ccccc2)C(Nc2ccccc2)=C1Br (centres undefined)
inactive: [5] 101 % of control | [6] 101 % of control | [7] 97 % of control

CN(C)c1cc(C(C)(C)C)nc(C(C)(C)C)c1
inactive: endpoint: mean survival time, dose: 12.5 mg/kg/injection, schedule: Q04DX002 (ip), vehicle: saline 111 % of control | [8] 98 % of control | endpoint: mean survival time, dose: 25.0 mg/kg/injection, schedule: Q04DX002 (ip), vehicle: saline 118 % of control | [9] 95 % of control | endpoint: mean survival time, dose: 50.0 mg/kg/injection, schedule: Q04DX002 (ip), vehicle: saline 100 % of control | [1] 95 % of control

O=C(CC(Cl)(C(F)(F)F)C(F)(F)F)c1cccc([N+](=O)[O-])c1
inactive: endpoint: mean survival time, dose: 12.5 mg/kg/injection, schedule: Q01DX001 (ip), vehicle: saline with Tween-80 103 % of control | endpoint: mean survival time, dose: 25.0 mg/kg/injection, schedule: Q01DX001 (ip), vehicle: saline with Tween-80 100 % of control | endpoint: mean survival time, dose: 50.0 mg/kg/injection, schedule: Q01DX001 (ip), vehicle: saline with Tween-80 97 % of control and 105 % of control

O=C1c2ccccc2C(=O)N1CC(O)CN1C(=O)c2ccccc2C1=O
inactive: endpoint: mean survival time, dose: 50.0 mg/kg/injection, schedule: Q01DX001 (ip), vehicle: other 98 % of control | endpoint: mean survival time, dose: 100.0 mg/kg/injection, schedule: Q01DX001 (ip), vehicle: other 100 % of control | endpoint: mean survival time, dose: 200.0 mg/kg/injection, schedule: Q01DX001 (ip), vehicle: other 93 % of control | endpoint: mean survival time, dose: 400.0 mg/kg/injection, schedule: Q01DX001 (ip), vehicle: other 94 % of control

CC12CCC(=O)C=C1CCC1C2C(=O)CC2(C)C1CCC2(O)C(=O)Cn1c(=O)cc[nH]c1=O (centres undefined)
inactive: [10] 96 % of control | [11] 96 % of control | [12] 103 % of control | [13] 97 % of control | [14] 97 % of control

CC(=O)O.CC(=O)O.O.[Fe]
inactive: [15] 98 % of control | [16] 96 % of control | [17] 100 % of control

CCOP(=O)(OCC)OCC1OC(n2cnc3c(N)ncnc32)C(O)C1O (centres undefined)
inactive: endpoint: median survival time, dose: 12.5 mg/kg/injection, schedule: Q01DX005 (ip), vehicle: distilled water + Tween-80 96 % of control | endpoint: median survival time, dose: 25.0 mg/kg/injection, schedule: Q01DX005 (ip), vehicle: distilled water + Tween-80 96 % of control | endpoint: median survival time, dose: 50.0 mg/kg/injection, schedule: Q01DX005 (ip), vehicle: distilled water + Tween-80 103 % of control | endpoint: median survival time, dose: 100.0 mg/kg/injection, schedule: Q01DX005 (ip), vehicle: distilled water + Tween-80 102 % of control | endpoint: median survival time, dose: 200.0 mg/kg/injection, schedule: Q01DX005 (ip), vehicle: distilled water + Tween-80 101 % of control

COC(=O)c1nc2ccccc2nc1C(=O)OC
inactive: [5] 103 % of control | [2] 100 % of control | [6] 103 % of control | [3] 94 % of control | [7] 102 % of control | [4] 96 % of control

CCOC1CCN(CCCn2c3ccccc3c3ccccc32)CC1
inactive: [8] 95 % of control | [9] 100 % of control | [1] 97 % of control and 111 % of control

CCc1nc(N)nc(N)c1-c1ccc(Cl)c(N=[N+]=[N-])c1
inactive: endpoint: median survival time, dose: 12.5 mg/kg/injection, schedule: Q01DX009 (ip), vehicle: distilled water + Tween-80 100 % of control | endpoint: median survival time, dose: 25.0 mg/kg/injection, schedule: Q01DX009 (ip), vehicle: distilled water + Tween-80 101 % of control and 102 % of control | endpoint: median survival time, dose: 50.0 mg/kg/injection, schedule: Q01DX009 (ip), vehicle: distilled water + Tween-80 102 % of control and 107 % of control | endpoint: median survival time, dose: 100.0 mg/kg/injection, schedule: Q01DX009 (ip), vehicle: distilled water + Tween-80 113 % of control (2×) and 96 % of control

CC(C)(C)c1cc2c3c(c1)Oc1cc(C(C)(C)C)cc4c1C3(O)c1c(cc(C(C)(C)C)cc1O4)O2
inactive: endpoint: median survival time, dose: 3.12 mg/kg/injection, schedule: Q01DX009 (ip), vehicle: Klucel (hydroxypropylcellulose) (HPC) 107 % of control | endpoint: median survival time, dose: 6.25 mg/kg/injection, schedule: Q01DX009 (ip), vehicle: Klucel (hydroxypropylcellulose) (HPC) 112 % of control | endpoint: median survival time, dose: 12.5 mg/kg/injection, schedule: Q01DX009 (ip), vehicle: Klucel (hydroxypropylcellulose) (HPC) 104 % of control

CC(=O)OC1CCC2(C)C(CCC3C2CC(OC(C)=O)C2(C)C3CCC2C2(C)SCCS2)C1 (centres undefined)
inactive: endpoint: mean survival time, dose: 50.0 mg/kg/injection, schedule: Q04DX002 (ip), vehicle: Klucel (hydroxypropylcellulose) (HPC) 95 % of control | endpoint: mean survival time, dose: 100.0 mg/kg/injection, schedule: Q04DX002 (ip), vehicle: Klucel (hydroxypropylcellulose) (HPC) 98 % of control | endpoint: mean survival time, dose: 200.0 mg/kg/injection, schedule: Q04DX002 (ip), vehicle: Klucel (hydroxypropylcellulose) (HPC) 88 % of control

CC(C)CC(NC(=O)C(C)NC(=O)OCc1ccccc1)C(N)=O (stereo not drawn) (Cbz-Ala-Leu-NH2; configuration not given here)
inactive: [5] 89 % of control

CC12OC3(C)C4CC1C1(C)OC4(C)C3C(O)C21 (centres undefined)
inactive: [15] 97 % of control | endpoint: mean survival time, dose: 100.0 mg/kg/injection, schedule: Q04DX003 (ip), vehicle: saline 105 % of control | [16] 97 % of control | endpoint: mean survival time, dose: 200.0 mg/kg/injection, schedule: Q04DX003 (ip), vehicle: saline 102 % of control | [17] 100 % of control | endpoint: mean survival time, dose: 400.0 mg/kg/injection, schedule: Q04DX003 (ip), vehicle: saline 96 % of control

O=C(Cc1cccc([N+](=O)[O-])c1)Nc1cccc(S(=O)(=O)F)c1
inactive: endpoint: mean survival time, dose: 100.0 mg/kg/injection, schedule: Q01DX001 (ip), vehicle: saline with Tween-80 96 % of control | endpoint: mean survival time, dose: 200.0 mg/kg/injection, schedule: Q01DX001 (ip), vehicle: saline with Tween-80 95 % of control | endpoint: mean survival time, dose: 400.0 mg/kg/injection, schedule: Q01DX001 (ip), vehicle: saline with Tween-80 96 % of control

O=C1C2C(c3ccccc3)=C(c3ccccc3)C1C1(c3ccccc3)C(c3ccccc3)=CC(=O)C21 (centres undefined)
inactive: endpoint: mean survival time, dose: 100.0 mg/kg/injection, schedule: Q01DX001 (ip), vehicle: Klucel (hydroxypropylcellulose) (HPC) 89 % of control | endpoint: mean survival time, dose: 200.0 mg/kg/injection, schedule: Q01DX001 (ip), vehicle: Klucel (hydroxypropylcellulose) (HPC) 93 % of control | endpoint: mean survival time, dose: 400.0 mg/kg/injection, schedule: Q01DX001 (ip), vehicle: Klucel (hydroxypropylcellulose) (HPC) 93 % of control

Cc1c[nH]c(=O)n(CC(=O)C2(O)CCC3C4CCC5=CC(=O)CCC5(C)C4CCC32C)c1=O (centres undefined)
inactive: [10] 103 % of control | [11] 102 % of control | [12] 102 % of control | [13] 97 % of control | [14] 100 % of control

O=C(O)/C=C\C(=O)O
inactive: endpoint: mean survival time, dose: 0.5 mg/kg/injection, schedule: Q04DX003 (ip), vehicle: saline with Tween-80 107 % of control | endpoint: mean survival time, dose: 1.0 mg/kg/injection, schedule: Q01DX009 (ip), vehicle: saline 100 % of control | endpoint: mean survival time, dose: 1.0 mg/kg/injection, schedule: Q04DX003 (ip), vehicle: saline with Tween-80 95 % of control | endpoint: mean survival time, dose: 1.56 mg/kg/injection, schedule: Q04DX003 (ip), vehicle: saline 89 % of control and 95 % of control | endpoint: mean survival time, dose: 2.0 mg/kg/injection, schedule: Q01DX009 (ip), vehicle: saline 97 % of control | endpoint: mean survival time, dose: 3.0 mg/kg/injection, schedule: Q04DX003 (ip), vehicle: saline with Tween-80 103 % of control | endpoint: mean survival time, dose: 3.13 mg/kg/injection, schedule: Q04DX003 (ip), vehicle: saline 87 % of control and 91 % of control | endpoint: mean survival time, dose: 6.0 mg/kg/injection, schedule: Q04DX003 (ip), vehicle: saline with Tween-80 103 % of control | endpoint: mean survival time, dose: 6.25 mg/kg/injection, schedule: Q04DX003 (ip), vehicle: saline 92 % of control and 96 % of control
